Consider 19 compounds from patent US20250235460A1, “COMBINATION THERAPY USING GLUCOSE-DEPENDENT INSULINOTROPIC POLYPEPTIDE RECEPTOR ANTAGONIST COMPOUNDS AND GLP-1 RECEPTOR AGONIST COMPOUNDS” (Pfizer Inc., priority 2024, published 2025).

Assay [1] deals with human GLP-1R (Homo sapiens, UniProt P43220, L260F). The assay is described as follows: CHO GLP-1R Clone C6 cAMP HTRF agonist assay (Assay 2, low receptor density). The note with it: for EC50: geometric mean; for Emax: CHO GLP-1R clone C6, arithmetic mean, relative to saturating GLP-1 (1 μM). It counts as cell-based. The source says: In Table 5 and Table 6, assay data are presented to two (2) significant figures as the geometric mean (EC50s) and arithmetic mean (Emax) based on the number of replicates listed (Number). A blank cell means there was no data for that Example or the Emax was not calculated.
human GLP-1R (Homo sapiens, UniProt P43220, L260F), sequence (P43220 24-463 L260F): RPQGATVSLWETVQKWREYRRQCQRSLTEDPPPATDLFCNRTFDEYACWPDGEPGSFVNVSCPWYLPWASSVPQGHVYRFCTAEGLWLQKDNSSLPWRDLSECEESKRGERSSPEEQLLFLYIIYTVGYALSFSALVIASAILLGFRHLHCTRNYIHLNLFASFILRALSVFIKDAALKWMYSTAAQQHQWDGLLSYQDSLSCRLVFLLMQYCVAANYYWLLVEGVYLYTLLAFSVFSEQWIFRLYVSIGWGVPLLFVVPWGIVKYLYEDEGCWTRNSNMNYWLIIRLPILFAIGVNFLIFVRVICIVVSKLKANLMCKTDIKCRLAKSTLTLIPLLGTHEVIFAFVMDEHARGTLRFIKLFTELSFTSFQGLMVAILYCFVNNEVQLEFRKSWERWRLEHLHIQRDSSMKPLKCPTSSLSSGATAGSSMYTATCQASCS
In general terms: Time-resolved FRET reads energy transfer from a long-lived donor to a nearby acceptor.

Assay [2] deals with human GLP-1R (Homo sapiens, UniProt P43220, G168S). The assay is described as follows: CHO GLP-1R Clone H6 cAMP HTRF agonist assay (Assay 1, high receptor density). Type of assay: cell-based. The note with it: for EC50: geometric mean; for Emax: CHO GLP-1R clone H6, arithmetic mean, relative to saturating GLP-1 (1 μM), read-out: Assay 1 Emax (%). Put shortly: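 Two significant figures are used throughout. Each EC50 is the geometric mean of its replicates, and each Emax is the arithmetic mean.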
human GLP-1R (Homo sapiens, UniProt P43220, G168S), sequence (P43220 24-463 G168S): as the sequence (P43220 24-463 L260F) above, with G145S, F237L counted along it

With `C[C@H]1CN(c2cccc(OCc3ccc(C#N)cc3F)n2)CCN1Cc1nc2ccc(C(=O)O)cc2n1Cc1cocn1` [Compound 241B, 2-{[(2S)-4-{6-[(4-cyano-2-fluorobenzyl)oxy]pyridin-2-yl}-2-methylpiperazin-1-yl]methyl}-1-(1,3-oxazol-4-ylmethyl)-1H-benzimidazole-6-carboxylic acid], the EC50 (commonly the concentration needed to bring the measured effect to its halfway point) at human GLP-1R [1] (CHO GLP-1R clone C6, cAMP HTRF) was 160 nM; on human GLP-1R [2] (CHO GLP-1R clone H6, cAMP HTRF), 9.4 nM. The Emax (as a rule, the greatest response seen or fitted, relative to the assay's reference) was 71% on human GLP-1R [1] and 69% on human GLP-1R [2].

Turning to `O=C(O)c1ccc2nc(CN3CCC(c4cccc(OCc5ccc(Cl)cc5F)n4)CC3)n(CC3CCC3)c2c1` [Compound 291B, 2-[(4-{6-[(4-chloro-2-fluorobenzyl)oxy]pyridin-2-yl}piperidin-1-yl)methyl]-1-(cyclobutylmethyl)-1H-benzimidazole-6-carboxylic acid], the EC50 on human GLP-1R [1] (CHO GLP-1R clone C6, cAMP HTRF) worked out at 1200 nM; on human GLP-1R [2] (CHO GLP-1R clone H6, cAMP HTRF), 54 nM. Besides, the Emax on human GLP-1R [1] was 82%; on human GLP-1R [2], 77%.

Consider `O=C(O)c1ccc2nc(CN3CCC(c4cccc(OCc5ccc(Cl)cc5F)n4)CC3)n(Cc3cocn3)c2c1` [Compound 155B, 2-[(4-{6-[(4-chloro-2-fluorobenzyl)oxy]pyridin-2-yl}piperidin-1-yl)methyl]-1-(1,3-oxazol-4-ylmethyl)-1H-benzimidazole-6-carboxylic acid], for which the EC50 on human GLP-1R [1] (CHO GLP-1R clone C6, cAMP HTRF) came out at 150 nM; at human GLP-1R [2] (CHO GLP-1R clone H6, cAMP HTRF) it was 7.9 nM. For the same compound, the Emax on human GLP-1R [1] was 100%; at human GLP-1R [2], 80%.

On to `COCCn1c(CN2CCN(c3cccc(OCc4ccc(Cl)cc4F)n3)CC2(C)C)nc2ccc(C(=O)O)cc21` [Compound 352B, 2-[(4-{6-[(4-chloro-2-fluorobenzyl)oxy]pyridin-2-yl}-2,2-dimethylpiperazin-1-yl)methyl]-1-(2-methoxyethyl)-1H-benzimidazole-6-carboxylic acid], for which the EC50 at human GLP-1R [1] (CHO GLP-1R clone C6, cAMP HTRF) was 1400 nM; on human GLP-1R [2] (CHO GLP-1R clone H6, cAMP HTRF) it was 46 nM. In addition, the Emax came out at 83% on human GLP-1R [1] and 66% on human GLP-1R [2].

Take `Cc1nnc(CCn2c(CN3CCC(c4cccc(OCc5ccc(Cl)cc5F)n4)CC3)nc3ccc(C(=O)O)cc32)o1` [Compound 253B, 2-[(4-{6-[(4-chloro-2-fluorobenzyl)oxy]pyridin-2-yl}piperidin-1-yl)methyl]-1-[2-(5-methyl-1,3,4-oxadiazol-2-yl)ethyl]-1H-benzimidazole-6-carboxylic acid]: the EC50 at human GLP-1R [1] (CHO GLP-1R clone C6, cAMP HTRF) turned out to be 20 nM; on human GLP-1R [2] (CHO GLP-1R clone H6, cAMP HTRF), 2 nM. In addition, the results for the Emax at human GLP-1R [1] and on human GLP-1R [2] were 87% and 84%, respectively.

Regarding `CCn1cncc1Cn1c(CN2CCC(c3cccc4c3OC(C)(c3ccc(Cl)cc3F)O4)CC2)nc2ccc(C(=O)O)cc21` (single isomer, unassigned; ent-1) [Compound 21B, Ammonium 2-({4-[2-(4-chloro-2-fluorophenyl)-2-methyl-1,3-benzodioxol-4-yl]piperidin-1-yl}methyl)-1-[(1-ethyl-1H-imidazol-5-yl)methyl]-1H-benzimidazole-6-carboxylate, ENT-1], the EC50 at human GLP-1R [1] (CHO GLP-1R clone, low receptor density, cAMP HTRF) stood at 1.1 nM; on human GLP-1R [2] (CHO GLP-1R clone, cAMP HTRF) it was 0.079 nM.

On to `O=C(O)c1ccc2nc(CN3CCC(c4cccc(OCc5ccc(Cl)cc5F)n4)CC3)n(Cc3ncco3)c2c1` [Compound 156B, 2-[(4-{6-[(4-chloro-2-fluorobenzyl)oxy]pyridin-2-yl}piperidin-1-yl)methyl]-1-(1,3-oxazol-2-ylmethyl)-1H-benzimidazole-6-carboxylic acid], for which the EC50 was 14 nM on human GLP-1R [1] (CHO GLP-1R clone C6, cAMP HTRF) and 0.96 nM on human GLP-1R [2] (CHO GLP-1R clone H6, cAMP HTRF). In addition, the Emax on human GLP-1R [1] is 95%; at human GLP-1R [2], 80%.

Regarding `Cc1n[nH]c(Cn2c(CN3CCC(c4cccc(OCc5ccc(Cl)cc5F)n4)CC3)nc3ccc(C(=O)O)cc32)n1` [Compound 334B, 2-[(4-{6-[(4-chloro-2-fluorobenzyl)oxy]pyridin-2-yl}piperidin-1-yl)methyl]-1-[(3-methyl-1H-1,2,4-triazol-5-yl)methyl]-1H-benzimidazole-6-carboxylic acid], the EC50 on human GLP-1R [1] (CHO GLP-1R clone C6, cAMP HTRF) turned out to be 570 nM; at human GLP-1R [2] (CHO GLP-1R clone H6, cAMP HTRF) it was 30 nM. In addition, the figures for the Emax on human GLP-1R [1] and on human GLP-1R [2] were 93% and 73%, respectively.

As to `CC1(Cn2c(CN3CCC(c4cccc(OCc5ccc(Cl)cc5F)n4)CC3)nc3ccc(C(=O)O)cc32)COC1` [Compound 251B, 2-[(4-{6-[(4-chloro-2-fluorobenzyl)oxy]pyridin-2-yl}piperidin-1-yl)methyl]-1-[(3-methyloxetan-3-yl)methyl]-1H-benzimidazole-6-carboxylic acid], the EC50 at human GLP-1R [1] (CHO GLP-1R clone C6, cAMP HTRF) was found to be 6.8 nM; on human GLP-1R [2] (CHO GLP-1R clone H6, cAMP HTRF), 0.59 nM. Further, the Emax came to 93% on human GLP-1R [1] and 83% at human GLP-1R [2].

Consider `Cc1ccc(Cn2c(CN3CCC(c4cccc(OCc5ccc(Cl)cc5F)n4)CC3)nc3ccc(C(=O)O)cc32)cn1` [Compound 336B, 2-[(4-{6-[(4-chloro-2-fluorobenzyl)oxy]pyridin-2-l}piperidin-1-yl)methyl]-1-[(6-methylpyridin-3-yl)methyl]-1H-benzimidazole-6-carboxylic acid], for which the EC50 on human GLP-1R [1] (CHO GLP-1R clone C6, cAMP HTRF) was 5300 nM; on human GLP-1R [2] (CHO GLP-1R clone H6, cAMP HTRF), 150 nM. In addition, the maximal effect (Emax) at human GLP-1R [1] was 80%; at human GLP-1R [2], 68%.

Take `COCCn1c(CN2CCC(c3cccc(OCc4ccc(C#N)c(C)c4)n3)CC2)nc2ccc(C(=O)O)cc21` [Compound 218B, 2-((4-(6-((4-cyano-3-methylbenzyl)oxy)pyridin-2-yl)piperidin-1-yl)methyl)-1-(2-methoxyethyl)-1H-benzo[d]imidazole-6-carboxylic acid]: the EC50 at human GLP-1R [1] (CHO GLP-1R clone C6, cAMP HTRF) worked out at 29 nM; at human GLP-1R [2] (CHO GLP-1R clone H6, cAMP HTRF), 1.5 nM. This compound displayed an Emax at human GLP-1R [1] of 95%.

Take `COCCn1c(CN2CC[C@H](c3cccc(OCc4ccc(Cl)cc4F)n3)[C@@H](C)C2)nc2ccc(C(=O)O)cc21` (racemic) [Compound 193B, rac-2-{[(3S,4R)-4-{6-[(4-chloro-2-fluorobenzyl)oxy]pyridin-2-yl}-3-methylpiperidin-1-yl]methyl}-1-(2-methoxyethyl)-1H-benzimidazole-6-carboxylic acid]: the EC50 at human GLP-1R [1] (CHO GLP-1R clone C6, cAMP HTRF) worked out at 4.1 nM; on human GLP-1R [2] (CHO GLP-1R clone H6, cAMP HTRF), 0.3 nM. The Emax at human GLP-1R [1] stood at 100%.

Turning to `Cc1nnc(Cn2c(CN3CCC(c4cccc(OCc5ccc(Cl)cc5F)n4)CC3)nc3ccc(C(=O)O)cc32)n1C` [Compound 244B, 2-[(4-{6-[(4-chloro-2-fluorobenzyl)oxy]pyridin-2-yl}piperidin-1-yl)methyl]-1-[(4,5-dimethyl-4H-1,2,4-triazol-3-yl)methyl]-1H-benzimidazole-6-carboxylic acid], the EC50 on human GLP-1R [1] (CHO GLP-1R clone C6, cAMP HTRF) is 460 nM; at human GLP-1R [2] (CHO GLP-1R clone H6, cAMP HTRF), 31 nM. For the same compound, the Emax was 66% at human GLP-1R [1] and 81% on human GLP-1R [2].

Consider `O=C(O)c1ccc2nc(CN3CCC(c4cccc(OCc5ccc(Cl)cc5F)n4)CC3)n(Cc3cn[nH]c3)c2c1` [Compound 290B, 2-[(4-{6-[(4-chloro-2-fluorobenzyl)oxy]pyridin-2-yl}piperidin-1-yl)methyl]-1-(1H-pyrazol-4-ylmethyl)-1H-benzimidazole-6-carboxylic acid], for which the EC50 amounted to 490 nM on human GLP-1R [1] (CHO GLP-1R clone C6, cAMP HTRF) and 44 nM at human GLP-1R [2] (CHO GLP-1R clone H6, cAMP HTRF). The figures for the Emax at human GLP-1R [1] and at human GLP-1R [2] were 98% and 72%, respectively.

On to `N#Cc1ccc(COc2nc(C3CCN(Cc4nc5ccc(C(=O)O)cc5n4C[C@@H]4CCO4)CC3)ccc2F)c(F)c1` [Compound 113B, 2-[(4-{6-[(4-cyano-2-fluorobenzyl)oxy]-5-fluoropyridin-2-yl}piperidin-1-yl)methyl]-1-[(2S)-oxetan-2-ylmethyl]-1H-benzimidazole-6-carboxylic acid], for which the EC50 at human GLP-1R [1] (CHO GLP-1R clone C6, cAMP HTRF) was 45 nM; at human GLP-1R [2] (CHO GLP-1R clone H6, cAMP HTRF), 3.9 nM. Further, the Emax at human GLP-1R [1] and at human GLP-1R [2] was 82% throughout.

On to `O=C(O)c1cc2c(cn1)nc(CN1CCC(c3cccc(OCc4ccc(Cl)cc4F)n3)CC1)n2Cc1ncco1` [Compound 204B, 2-[(4-{6-[(4-chloro-2-fluorobenzyl)oxy]pyridin-2-yl}piperidin-1-yl)methyl]-1-(1,3-oxazol-2-ylmethyl)-1H-imidazo[4,5-c]pyridine-6-carboxylic acid], for which the EC50 on human GLP-1R [1] (CHO GLP-1R clone C6, cAMP HTRF) turned out to be 400 nM; at human GLP-1R [2] (CHO GLP-1R clone H6, cAMP HTRF) it was 18 nM. Further, the Emax on human GLP-1R [1] is 100%; at human GLP-1R [2], 88%.

For `COCCn1c(CN2CCN(c3cccc(OCc4ccc(Cl)cc4F)n3)C[C@@H]2C)nc2ccc(C(=O)O)cc21` [Compound 355B, 2-{[(2S)-4-{6-[(4-chloro-2-fluorobenzyl)oxy]pyridin-2-yl}-2-methylpiperazin-1-yl]methyl}-1-(2-methoxyethyl)-1H-benzimidazole-6-carboxylic acid], the EC50 turned out to be 110 nM on human GLP-1R [1] (CHO GLP-1R clone C6, cAMP HTRF) and 6.3 nM at human GLP-1R [2] (CHO GLP-1R clone H6, cAMP HTRF). In addition, the Emax turned out to be 87% on human GLP-1R [1] and 83% on human GLP-1R [2].

For `O=C(O)c1ccc2nc(CN3CCC(c4cccc(OCc5ccc(Cl)cc5F)n4)CC3)n(Cc3nnc[nH]3)c2c1` [Compound 300B, 2-[(4-{6-[(4-chloro-2-fluorobenzyl)oxy]pyridin-2-yl}piperidin-1-yl)methyl]-1-(4H-1,2,4-triazol-3-ylmethyl)-1H-benzimidazole-6-carboxylic acid], the EC50 on human GLP-1R [1] (CHO GLP-1R clone C6, cAMP HTRF) came to 1300 nM; at human GLP-1R [2] (CHO GLP-1R clone H6, cAMP HTRF), 120 nM. Further, the Emax at human GLP-1R [1] is 96%; on human GLP-1R [2] it was 93%.

Turning to `Cn1c(CN2CCC(c3cccc(OCc4cc(F)ccc4F)n3)CC2)nc2ccc(C(=O)O)cc21` [Compound 233B, 2-[(4-{6-[(2,5-difluorobenzyl)oxy]pyridin-2-yl}piperidin-1-yl)methyl]-1-methyl-1H-benzimidazole-6-carboxylic acid], the EC50 at human GLP-1R [1] (CHO GLP-1R clone C6, cAMP HTRF) worked out at 9.6 nM; at human GLP-1R [2] (CHO GLP-1R clone H6, cAMP HTRF), 0.56 nM. In addition, the Emax at human GLP-1R [1] amounted to 84%; on human GLP-1R [2] it was 73%.
